Reference: patent publication US20260131107A1, “CATHETERS” (ConvaTec Limited, priority 2023, published 2026)

Experiments:
[1] = test system: ESBL Producing Klebsiella pneumoniae NCTC 13465; experiment: Direct inoculation method (Assessment 6a); assay type: cell-based; settings: 250 ppm solution
Method: (§1) Representative colonies from an 18-24 hour challenge culture plate were dispersed in a 500 µl aliquot of maximum recovery diluent (MRD) to obtain an optical density (OD540 nm) equivalent to approximately I×lO^8 CFU/ml. This was diluted to obtain a working concentration of I×lO^7 CFU/ml. A quantitative count was performed to confirm the inoculum level.
(§2) The bacteria tested were Escherichia coli NCIMB 14067, ESBL Producing Klebsiella pneumoniae NCTC 13465, Enterococcus faecalis NCTC 12201, Proteus mirabilis NCTC 9559 and Pseudomonas aeruginosa NCIMB 8626, which each are commonly associated with causing CAUTI.
(§3) 5 pl of the I×lO^7 CFU/ml challenge suspension was added to a 500 pl aliquot of hypochlorous acid solution (250 ppm) (n=3 per challenge organism, per timepoint) and mixed to form a suspension.
(§4) Following 10 seconds, 1 minute and 2 minutes from adding the challenge suspension to the aliquot of hypochlorous acid, samples were taken from the suspension to establish the number of challenge organisms remaining. This was performed by removing 100 pl volumes and transferring to 0.9 ml and 9.9 ml DENB (for 1:10 and 1:100 dilutions respectively). Appropriate serial dilutions were performed and inoculated onto pre-dried Tryptone Soy Agar (TSA) plates to establish the numbers remaining.

[2] = test system: Enterococcus faecalis NCTC 12201; experiment: Direct inoculation method (Assessment 6a); assay type: cell-based; settings: 250 ppm solution
Method: as §1, §2, §3, §4

[3] = test system: Escherichia coli NCIMB 14067; experiment: Direct inoculation method (Assessment 6a); assay type: cell-based; settings: 250 ppm solution
Method: as §1, §2, §3, §4

[4] = test system: Proteus mirabilis NCTC 9559; experiment: Direct inoculation method (Assessment 6a); assay type: cell-based; settings: 250 ppm solution
Method: as §1, §2, §3, §4

[5] = test system: Pseudomonas aeruginosa NCIMB 8626; experiment: Direct inoculation method (Assessment 6a); assay type: cell-based; settings: 250 ppm solution
Method: as §1, §2, §3, §4

[6] = test system: Escherichia coli NCIMB 14067; experiment: Antimicrobial activity along the catheter method (Assessment 6b); assay type: cell-based; settings: concentration 300 ppm or above; each section of GentleCath Air 2.0 CH14 catheter; two minutes
Method: as §1, with “in” for “in a 500 µl aliquot of”, “I×lO^4” for “I×lO^7”
The bacteria tested were Escherichia coli NCIMB 14067 which are bacteria that are commonly associated with causing CAUTI.
GentleCath Air 2.0 CH14 (manufactured by ConvaTec Inc.) intermittent urinary catheters were used for the assessment. Each catheter was prepared within a laminar flow cabinet to maintain sterility. In the assessment, each catheter was hydrated with a 100, 150, 200, 300, 675 or 1000 ppm hypochlorous acid solution. A further catheter was hydrated with sterile deionised water (SDW) and was used as a control.
Enough samples were prepared for n=3 and controls for n=1 per challenge organism.
Each catheter was hydrated with a hypochlorous solution as described above, as per the IFU, and removed from its packaging.
Each catheter was cut into three sections, each section having a length of 2.5 cm, beginning at the tip of the catheter (section 1) and ending proximal to the handle of the catheter (section 3). […]

[7] = test system: E. coli NCIMB 14067; experiment: Antimicrobial residual test (Assessment 6c); assay type: cell-based, Escherichia coli; settings: for Antimicrobial residual test result (growth of challenge organism): 40 µl on sterile filter
Method: (§5) Representative colonies from an 18-24 hour challenge culture plate were dispersed in maximum recovery diluent (MRD) to obtain an optical density (OD540 nm) equivalent to approximately I×lO^8 CFU/ml. This was diluted to obtain a working concentration of I×lO^6 CFU/ml. A quantitative count was performed to confirm the inoculum level. The bacteria tested were Escherichia coli NCIMB 14067, Enterococcus faecalis NCTC 12201, which each are commonly associated with causing CAUTI. 40 pl of a hypochlorous acid solution (250 ppm), representative of the amount of hypochlorous acid that is left on a catheter following hydration, was placed onto sterile filters. A 40 pl volume of maximum recovery diluent (MRD) was placed onto a further sterile filter as a negative control. A 40 pl volume of approximate 2% […] was placed onto a further sterile filter as a positive control. The filters used were Grade 427 mm Whatman Filters. Following timepoints of 0 minutes, 30 minutes and 4 hours from adding the hypochlorous acid solutions and control to respective sterile filters, each sterile filter was then inoculated with lOpl of IxlO^6 CFU/ml challenge suspension of bacteria, prepared as described above, and left undisturbed for two minutes (to represent approximate urination time). Following the two minutes, the filters were homogenised in Dey-Engley Neutralising Broth (DENB) and appropriate serial dilutions were performed and inoculated onto pre-dried Tryptone Soy Agar (TSA) plates to establish the bacteria numbers remaining.

[8] = test system: E. faecalis NCTC 12201; experiment: Antimicrobial residual test (Assessment 6c); assay type: cell-based, Enterococcus faecalis; settings: for Antimicrobial residual test result (growth of challenge organism): 40 µl on sterile filter
Method: as §5

[9] = test system: E. coli NCIMB 14067; experiment: Antimicrobial efficacy of very low hypochlorous acid concentrations, suspension test (Further Assessment 2); assay type: cell-based, Escherichia coli; settings: for bacterial recovery: 10 ppm solution; for numbers of bacteria recovered: after 30 seconds
Method: The antimicrobial efficacy of hypochlorous acid was tested at even lower concentrations (10, 25, and 50 ppm) against the challenging organism E. coli NCIMB 14067. The representative colonies of E. coli NCIMB 14067 were dispersed in maximum recovery diluent (MRD) to obtain an optical density (OD540 nm) equivalent to approximately […]. A quantitative plate count was performed on this suspension to determine the total number of viable organisms inoculated. A new suspension was prepared for each concentration tested. A 1000 ppm hypochlorous acid solution was diluted in sterile deionised water to provide the respective 10, 25 and 50 ppm hypochlorous acid solutions. The hypochlorous acid samples were aliquoted into 9 mL volumes and 1 mL of the challenge organism suspension was added and mixed (the final number of bacteria present is now approximately 1×10^6 CFU/mL). Following 5, 30 seconds, 1, 2, and 5 minutes, 100 pL volumes were sampled and transferred to 0.9 mL and 9.9 mL of Dey-Engley Neutralising Broth (DENB) (to provide a 1:10 and 1:100 dilution respectively), and total viable counts were performed to establish the amount present. The plates were left to dry before being inverted and incubated at 35+3° C. for at least 48 hours. A negative control was also tested whereby 1 mL of the challenge organism suspension was added to 9 mL of MRD and tested as previously described. Following the incubation period, the number of CFUs were counted on the most appropriate dilution for each sample i.e. between 25-250 CFU/plate.

[10] = test system: Enterococcus faecalis NCTC 12201; experiment: In vitro direct inoculation method, sulfanilamide comparison (Further Assessment 3); assay type: cell-based
Method: (§6) An in vitro direct inoculation method was used to assess the antimicrobial activity of sulfanilamide in an intermittent urinary catheter scenario against […] Escherichia coli NCIMB 14067 and […] Enterococcus faecalis NCTC 12201; two microorganisms associated with urinary tract infections. Sulfanilamide concentrations of 0.1% and 0.01% were tested and bacterial levels monitored over a period of 5 minutes. Representative colonies of the challenge microorganisms, from an 18-24 hour challenge culture plate, were dispersed in MRD to obtain an optical density (OD540 nm) equivalent to approximately 1×10^8 CFU/mL. This was diluted to obtain a working concentration of 1×10^6 CFU/mL. A quantitative count was performed to confirm the inoculum level. The challenge organism was prepared in MRD to a concentration of approximately 1×10^6 CFU/mL. This suspension was added in a 1 mL volume to 9 mL of sample (n=3 per sample, n=2 per control) in a sterile 30 mL universal and pipetted up and down to mix. Following each testing period, 5 seconds, 30 seconds, 1 minute, 2 minutes and 5 minutes, 100 μL of the test solution was transferred to 0.9 mL and 9.9 mL volumes of DENB (1:10 and 1:100 dilutions, respectively). The most appropriate dilutions were inoculated (100 pL) onto duplicate pre-dried (tryptone soy agar) TSA plates and the inoculum spread using separate sterile L-shaped spreaders (for 10-1 and 10-2 dilutions, 0.5 mL were placed onto duplicate plates). The TSA plates were allowed to dry before being inverted and incubated at 35±3° C. for at least 48 hours. Following the incubation period, the number of bacterial colonies were counted on the most appropriate dilution for each dressing type i.e. between 25-250 CFU/plate. The samples tested were: 0.1% sulfanilamide in sterile deionised water (SDW); 0.01% sulfanilamide in SDW; 100 ppm hypochlorous acid in SDW; and a SDW control.

[11] = test system: Escherichia coli NCIMB 14067; experiment: as above; assay type: cell-based
Method: as §6

[12] = inoculated at 0 hour (plus 2 minutes)
[13] = inoculated at 30 minutes (plus 2 minutes)
[14] = inoculated at 4 hours (plus 2 minutes)
[15] = 250 ppm solution on sterile filter
[16] = 100 ppm in SDW, within 5 seconds and for the remaining testing period (to 5 minutes)
[17] = 0.1% and 0.01% in SDW, any timepoint from 5 seconds to 5 minutes

**Q.** What does the source list for OCl [hypochlorous acid]?
**A.** Bacterial numbers reduced to the detection limit (>5 log reduction) ([1]; 10 seconds): Yes; Bacterial numbers reduced to the detection limit (>5 log reduction) ([1]; 1 minute): Yes; Bacterial numbers reduced to the detection limit (>5 log reduction) ([1]; 2 minutes): Yes; Bacterial numbers reduced to the detection limit (>5 log reduction) ([2]; 10 seconds): Yes; Bacterial numbers reduced to the detection limit (>5 log reduction) ([2]; 1 minute): Yes; Bacterial numbers reduced to the detection limit (>5 log reduction) ([2]; 2 minutes): Yes; Bacterial numbers reduced to the detection limit (>5 log reduction) ([3]; 10 seconds): Yes; Bacterial numbers reduced to the detection limit (>5 log reduction) ([3]; 1 minute): Yes; Bacterial numbers reduced to the detection limit (>5 log reduction) ([3]; 2 minutes): Yes; Bacterial numbers reduced to the detection limit (>5 log reduction) ([4]; 10 seconds): Yes; Bacterial numbers reduced to the detection limit (>5 log reduction) ([4]; 1 minute): Yes; Bacterial numbers reduced to the detection limit (>5 log reduction) ([4]; 2 minutes): Yes; Bacterial numbers reduced to the detection limit (>5 log reduction) ([5]; 10 seconds): Yes; Bacterial numbers reduced to the detection limit (>5 log reduction) ([5]; 1 minute): Yes; Bacterial numbers reduced to the detection limit (>5 log reduction) ([5]; 2 minutes): Yes; bacterial cell death [6]: greater than 93%; Antimicrobial residual test result (growth of challenge organism) [7, 12]: No growth; Antimicrobial residual test result (growth of challenge organism) [7, 13]: Growth; Antimicrobial residual test result (growth of challenge organism) [7, 14]: Growth; time by which antimicrobial activity was exhausted [7, 15]: ≤ 30 min; Antimicrobial residual test result (growth of challenge organism) [8, 12]: No growth; Antimicrobial residual test result (growth of challenge organism) [8, 13]: Growth; Antimicrobial residual test result (growth of challenge organism) [8, 14]: Growth; time by which antimicrobial activity was exhausted [8, 15]: ≤ 30 min; bacterial recovery ([9]; 1 minute timepoint): undetectable levels; bacterial recovery ([9]; at 30 seconds): over 10 CFU/mL; numbers of bacteria recovered ([9]; 25 ppm solution): undetectable numbers of bacteria; numbers of bacteria recovered ([9]; 50 ppm solution): undetectable numbers of bacteria; challenge organism numbers [10, 16]: undetectable numbers; challenge organism numbers [11, 16]: undetectable numbers

**Q.** For Nc1ccc(S(N)(=O)=O)cc1 [sulfanilamide, reference compound], which “challenge organism numbers compared to the control” value [10, 17] is on record?
**A.** no decrease in challenge organism numbers

**Q.** What about the “challenge organism numbers compared to the control” value [11, 17] of the same compound?
**A.** no decrease in challenge organism numbers
